Measured values reported in patent US11458138B2 (Novartis AG, priority 2017, dated 2022).
“Also recorded” adds a separate entry of the source.

Columns and labels:
[1] = test system: Corneal Endothelial Cells (CECs); assay: ZO-1 immunolabelling of expanded CECs; type: cell-based, human; settings: vs vehicle DMSO
From the text: CECs proliferated in the presence of the vehicle alone (DMSO) show signs of polymegatism characteristic of dysfunctional CECs (FIG. 18a).
(2) The cells are able to form tight junctions. This may be checked by a standard technique known in the art, immunofluorescence staining of tight-junction marker Zonula Occludens-1 (ZO-1).
(3) The cells are able to be regularly arranged in the cell layer. This may be checked by a standard technique known in the art, immunofluorescence staining of tight-junction marker Zonula Occludens-1 (ZO-1).

[2] = test system: YAP translocation in Corneal Endothelial Cells (CECs); assay: YAP nuclear translocation in Corneal Endothelial Cells (CECs); type: cell-based, human
[3] = test system: Corneal Endothelial Cells (CECs); assay: CEC proliferation, Incucyte confluence by real-time live-cell analysis; type: cell-based, human; settings: vs vehicle DMSO
From the text: FIG. 16: CECs grown in presence or absence of LATS inhibitors. An Incucyte system (Essen Biosciences) was used to measure CEC confluence by real-time quantitative live-cell analysis over a time course. Compound ex. 49 (black squares) and ex.
If it is desired to measure the cell number or expansion of the cell population, this may be done for example by taking an aliquot and performing immunocytochemistry (e.g. to count nuclei stained with Sytox Orange) or by live cell imaging under brightfield microscope to count the number of cells or by performing real-time quantitative live-cell analysis of cell confluence at various time points during the cell population expansion phase of the method according to the invention.

[4] = test system: YAP phosphorylation in CECs; assay: YAP dephosphorylation in CECs by Western blot; type: cell-based, human; settings: within one hour of treatment, normalized to beta-actin and total YAP
From the text: As shown in FIG. 15a by Western blot; FIG. 15b: graph showing phosphorylated YAP levels normalized to beta-actin; and FIG. 15c: graph showing phosphorylated YAP levels normalized to total YAP.

[5] = test system: phospho-YAP (ser127) in human LSCs; assay: YAP phosphorylation by western blot in LSCs; type: cell-based; settings: 10 micromolar, 1 hour
Method: Cells obtained as described in Example B1 were detached from the culture dish with Accutase for 10 minutes at 37° C., cell suspensions were rinsed by centrifugation and plated in DMEM F12 supplemented with 10% human serum and 1.3 mM calcium chloride in 6-well plates (Corning) and cultured without LATS inhibitor compounds for 2-4 days.
The medium was then replaced by fresh limbal epithelium cell culture medium (DMEM F12 supplemented with 10% human serum and 1.3 mM calcium chloride) supplemented with LATS inhibitor compound example no. […] Cells were cultured under these conditions for 1 hour at 37° C. in 5% CO2.
To measure the effect of the LATS inhibitors on the downstream target YAP, the YAP phosphorylation levels were measured by western blot as follows. The cell pellets were obtained by trypsin dissociation and centrifugation and washed with PBS. The pellets were lysed with 30 microlitres of RIPA lysis buffer containing protease inhibitor cocktail (Life Technologies) for 30 minutes, with vortexing every 10 minutes. The cell debris were then pelleted at 4° C. for 15 minutes at 14 k rpm and the protein lysate was collected. Protein concentration was quantified using a micro BCA kit (Pierce). Fifteen micrograms of total protein was loaded in each well of 4-20% TGX gels (BioRad) and Western blotting was performed according to the manufacturer's instructions. […]

mouse dorsal skin = assay: In Vivo Histology and Ki67 Staining Assay (skin cell proliferation); settings: intact mouse dorsal skin, topical, three days of twice-a-day dosing, vs vehicle
Method: Further, the compounds of the invention increase skin cell proliferation in vivo when applied topically. The study was conducted as described the “In Vivo Histology and Ki67 Staining Assay” in the Examples Section A. Example 133 or vehicle were applied to intact mouse dorsal skin. After three days of twice-a-day dosing, the skin samples were collected and subjected to immunohistology staining for Ki67. The sections were evaluated visually for cell proliferation and for the abundance of Ki67 positive cells. The study results are documented in FIGS. 35A and 35B.
FIG. 35B compares the abundance of Ki67 positive cell in untreated and treated mouse skin. […] Also, by using siRNA to knockdown both LATS1 and LATS2, LATS as a negative regulator of the YAP pathway has also been validated.

YAP target gene Cyr61 = assay: In Vivo PD Assay: YAP target gene expression in mouse excisional wounds; settings: mouse full-thickness excisional wounds, topical 0.2 and 2 mg/mL, two daily doses, vs vehicle, dose-dependent
Method: The compounds of the invention also activate the YAP pathway in vivo. A study of YAP pathway target gene expression was conducted in an in vivo mouse model as described in the In Vivo PD Assay in the Examples Section A. Two full-thickness excisional wounds on the dorsum of an anesthetized mouse were treated topically with vehicle, or 0.2 and 2 mg/mL of Example 133. After two daily doses, the skin samples around the wound edge were collected and Taqman analyses were performed using Cyr61 and Gapdh probes. mRNA expression levels for the target genes were normalized to Gapdh mRNA levels and plotted against the concentration of Example 133 in FIG. 34. […] The result is consistent with known LATS biology for activation of the YAP pathway.

CTGF mRNA in liver = assay: In vivo treatment of mice: quantitative RT-PCR, CTGF; settings: mouse liver, single oral dose 10 mg/kg, 2 h post-dose, relative to vehicle, mean+/-SEM
Method: (§1) All animal studies were carried out in accordance with federal, state, local and institutional guidelines governing the use of laboratory animals in research. Male C57BL/6J mice (age 8-10 weeks) were purchased from Jackson Labs (Bar Harbor, Me.). Example 46 was formulated for oral dosing at 3 mg/ml, and Example 261 at 1 mg/ml, in a suspension of methylcellulose:Tween80:Water (0.5:0.5:99). Single oral dose of either compound was at 10 mL/kg body weight. Blood and liver tissue were collected under deep anesthesia (isoflurane) at either 2 h post-dose (for mRNA analysis) or 24 h post-dose (for immunohistochemistry).
(§2) Total liver RNA was isolated from tissue after storage in RNAlater reagent (Qiagen), using a TRIzol method according to the manufacturer's instructions (Life Technologies). Relative mRNA abundance was measured by quantitative RT-PCR using TaqMan gene expression assays and reagents according to standard protocols (Applied Biosystems). Mouse probes for YAP target genes were CTGF (Mm01192933_g1) and Cyr61 (Mm00487498_m1). […] Relative changes in mRNA were calculated by the ΔΔCt method. Changes in gene expression with compound treatment are expressed as fold-change relative to the vehicle group.

Cyr61 mRNA in liver = assay: In vivo treatment of mice: quantitative RT-PCR, Cyr61; settings: mouse liver, single oral dose 10 mg/kg, 2 h post-dose, relative to vehicle, mean+/-SEM
Method: as §1, §2

SMILES | tight junctions, cell size and morphology of CECs (ZO-1) [1] | translocation of YAP into the nucleus in CECs [2] | CEC proliferation (confluence over time) [3] | YAP dephosphorylation in CECs [4] | YAP phosphorylation levels in human LSCs (western blot) [5] | abundance of Ki67 positive cells (mouse dorsal skin) [%] | basal cell proliferation and epidermal thickness (mouse dorsal skin) | YAP target gene Cyr61 mRNA normalized to Gapdh (YAP target gene Cyr61) | CTGF mRNA (fold-change) (CTGF mRNA in liver) | Cyr61 mRNA (fold-change) (Cyr61 mRNA in liver)
CC(C)(O)CC(C)(C)Nc1nc(-c2ccncc2)nc2cnccc12 [Example 49, 2,4-dimethyl-4-{[2-(pyridin-4-yl)pyrido[3,4-d]pyrimidin-4-yl]amino}pentan-2-ol] | form tight junctions, an endothelial structure and retain a normal cell size and morphology | induce translocation of YAP into the nucleus | induced strong CEC proliferation | induce YAP dephosphorylation | reduction in YAP phosphorylation levels | – | – | – | – | –
Cc1n[nH]cc1-c1nc(NC2(C)CC2)c2ccncc2n1 [Example 133, 2-(3-methyl-1H-pyrazol-4-yl)-N-(1-methylcyclopropyl)pyrido[3,4-d]pyrimidin-4-amine] | – | induce translocation of YAP into the nucleus | induced strong CEC proliferation | induce YAP dephosphorylation | reduction in YAP phosphorylation levels | 10 | significant increase in basal cell proliferation and epidermal thickness; also recorded: increased basal layer skin cell growth | significantly up-regulated; also recorded: induced YAP target gene expression | – | –
CC(C)(C)Nc1cc(-c2ccncc2)nc2cnccc12 [Example 261, N-(tert-butyl)-2-(pyridin-4-yl)-1,7-naphthyridin-4-amine] | – | – | – | – | – | – | – | – | 2.5 (+/−0.2) fold-change | 3.9 (+/−0.6) fold-change
